From article PMC8102477 (2021)

Tests used:
[1] = tested on: labelled 22AG (DNA, G4) AGGGTTAGGGTTAGGGTTAGGG; experiment: FRET efficiency (FAM/TAMRA); conditions: no added Na+ or K+; 30 mM Tris-HCl pH 7.4, 25 °C, 1 bar; 2 µM DNA, 20 µM ThT; Erel rises on binding
[2] = tested on: 22AG (DNA, G4) AGGGTTAGGGTTAGGGTTAGGG; experiment: fluorescence titration (ThT titrated with 22AG); conditions: 30 mM Tris-HCl pH 7.4, 25 °C, 1 bar, 2.14 µM ThT

binding [1]: yes
Kb ([2]; 60 mM KCl, equivalent independent sites fit): 3.51 ± 0.42 × 10^5 M^-1
Kb ([2]; 60 mM NaCl, equivalent independent sites fit): 0.42 ± 0.04 × 10^5 M^-1
Kb ([2]; no added Na+ or K+, 3 equivalent sites, free DNA mainly unfolded): 0.87 ± 0.06 × 10^5 M^-1
Structure (SMILES): Cc1ccc2c(c1)sc(-c1ccc(N(C)C)cc1)[n+]2C
